{"source": "patent US20030181374A1", "about": "“Methods and compositions for stimulating bone growth using inhibitors of microtubule assembly” (priority 2002, published 2003)", "key": {"[1]": {"test_system": "Calvariae of one-month-old ICR Swiss mice", "experiment": "New bone formation on calvariae (new bone width by histomorphometry)", "assay_type": "in vivo", "details": "x2d, mean ± SE, n=5", "method": "(§1) Male ICR Swiss white mice, aged 4-6 weeks and weighing 13-26 gm, are employed, using 4-5 mice per group. The calvarial bone growth assay is performed as described in PCT application WO95/24211, incorporated by reference. Briefly, the test compound or appropriate control vehicle is injected into the subcutaneous tissue over the right calvaria of normal mice. Typically, the control vehicle is the vehicle in which the compound was solubilized, and is PBS containing 5% DMSO or is PBS containing Tween (2 μl/10 ml). The animals are sacrificed on day 14 and bone growth measured by histomorphometry. Bone samples for quantitation are cleaned from adjacent tissues and fixed in 10% buffered formalin for 24-48 hours, decalcified in 14% EDTA for 1-3 weeks, processed through graded alcohols; and embedded in paraffin wax. Three to five μm sections of the calvaria are prepared, and representative sections are selected for histomorphometric assessment of the effects on bone formation and bone resorption. Sections are measured by using a camera lucida attachment to trace directly the microscopic image onto a digitizing plate. Bone changes are measured on sections cut 200 μm apart, over 4 adjacent 1×1 mm fields on both the injected and noninjected sides of the calvaria. New bone is identified by its characteristic woven structure, and osteoclasts and osteoblasts are identified by their distinctive morphology. Histomorphometry software (OsteoMeasure, Osteometrix, Inc., Atlanta) is used to process digitizer input to determine cell counts and measure areas or perimeters.\nas §1, with “In more detail, male” for “Male”, “above.” for “in PCT application WO95/24211, incorporated by reference.”\nSelected compounds and appropriate controls were assayed in vitro (ex vivo) for bone formation activity (described above in “Techniques for Neonatal Mouse Calvaria Assay (in vitro)). Histomorphometrical assessments of ex vivo calvaria were carried out using an OsteoMetrics bone morphometry measurement program, according to the manufacturer's instructions. Measurements were determined using either a 10- or 20-fold objective with a standard point counting eyepiece graticule.\nNew bone formation was determined (using a 10× objective) by measuring the new bone area formed in one field in 3 representative sections of each bone (4 bones per group). Each measurement was carried out ½ field distance from the end of the suture. Both total bone and old bone area were measured. Data were expressed as new bone width in mm."}, "ICR Swiss mice": {"test_system": "ICR Swiss mice", "experiment": "Bone volume and bone formation rates in ICR Swiss mice", "assay_type": "in vivo", "details": "n=10", "method": "Briefly, test compound, positive control compound, PBS, or vehicle alone is administered subcutaneously once per day for 35 days. All animals are injected with calcein nine days and two days before sacrifice (two injections of calcein administered each designated day). Weekly body weights are determined. At the end of the 35-day cycle, the animals are weighed and bled by orbital or cardiac puncture. Serum calcium, phosphate, osteocalcin, and CBCs are determined. Both leg bones (femur and tibia) and lumbar vertebrae are removed, cleaned of adhering soft tissue, and stored in 70% ethanol for evaluation, as performed by peripheral quantitative computed tomography (pQCT; Ferretti, J., Bone (1995) 17:353S-64S), dual energy X-ray absorptiometry (DEXA; Laval-Jeantet A., et al., Calcif Tissue Intl (1995) 56:14-18; J. Casez, et al., Bone and Mineral (1994) 26:61-68) and/or histomorphometry. The effect of test compounds on bone remodeling can thus be evaluated.\nMicrotubule Inhibitor TN-16 Increases Bone Volume and Bone Formation Rates in ICR Swiss Mice."}, "BMP2 promoter-Luc": {"test_system": "BMP2 promoter-Luc", "experiment": "High throughput screening: BMP2 promoter-luciferase reporter in 2T3-BMP-2-LUC osteoblast cells", "assay_type": "cell-based, mouse", "details": "2T3 cells, mean ± SE, n=4", "excerpt": "2, 1995, the entire contents of which are incorporated herein by reference. This assay is also described as a portion of a study of immortalized murine osteoblasts (derived from a mouse expressing a transgene composed of a BMP2 promoter driving expression of T-antigen) in Ghosh-Choudhery, N., et al., Endocrinology (1996) 137:331-39. In this study, the immortalized cells were stably transfected with a plasmid containing a luciferase reporter gene driven by a mouse BMP2 promoter (˜2736/114 bp), and responded in a dose-dependent manner to recombinant human BMP2.\nBriefly, the assay utilizes cells transformed permanently or transiently with constructs in which the promoter of a bone morphogenetic protein, specifically BMP2 or BMP4, is coupled to a reporter gene, typically luciferase. These transformed cells are then evaluated for the production of the reporter gene product; compounds that activate the BMP promoter will drive production of the reporter protein, which can be readily assayed. Many thousands of compounds have been subjected to this rapid screening technique, and only a very small percentage are able to elicit a level of expression of reporter gene 5-fold greater than that produced by vehicle. […] The active compounds (“BMP promoter-active compounds” or “active compounds”) are useful in promoting bone or cartilage growth, and thus in the treatment of vertebrates in need of bone or cartilage growth.\nIn more detail, the 2T3-BMP-2-LUC cells, a stably transformed osteoblast cell line described in Ghosh-Choudhury et al. Endocrinology (1996) 137:331-39, referenced above, was employed. The cells were cultured using α-MEM, 10% FCS with 1% penicillin/streptomycin and 1% glutamine (“plating medium”), and were split 1:5 once per week. For the assay, the cells were resuspended in a plating medium containing 4% FCS, plated in microtiter plates at a concentration of 5×10^3 cells (in 50 μl)/well, and incubated for 24 hours at 37° C. in 5% CO2. To initiate the assay, 50 μl of the test compound or the control in DMSO was added at 2× concentration to each well, so that the final volume was 100 μl. The final serum concentration was 2% FCS, and the final DMSO concentration was 1%. Compound 59-0008 (10 μM) was used as a positive control.\nThe treated cells were incubated for 24 hours at 37° C. and 5% CO2. The medium was then removed, and the cells were rinsed three times with PBS. After removal of excess PBS, 25 μl of 1× cell culture lysing reagent (Promega #E153A) was added to each well and incubated for at least ten minutes. Optionally, the plates/samples could be frozen at this point. To each well was added 50 μl of luciferase substrate (Promega #E152A; 10 ml Promega luciferase assay buffer per 7 mg Promega luciferase assay substrate). Luminescence was measured on an automated 96-well luminometer, and was expressed as either picograms of luciferase activity per well or as picograms of luciferase activity per microgram of protein, as provided below, using TN-16 as the test compound."}, "mice": {"test_system": "mice", "experiment": "In vivo assay for bone mineral density", "details": "x2d, mean ± SE, n=10"}}, "note": "Marks after values point to notes of the source that are not given here. Where a SMILES comes first, the peptide text is derived from it. The star is where a group is joined. Cbz = O=C(OCc1ccccc1)*; OtBu = CC(C)(C)O*"}
{"smiles": "COc1cc2c(c(OC)c1OC)-c1ccc(OC)c(=O)cc1C(NC(C)=O)CC2", "note": "(stereo not drawn) [Colchicine, N-(5,6,7,9-Tetrahydro-1,2,3,10-tetra-methoxy-9-oxobenzo[a]heptalen-7-yl) acetamide]", "values": [{"measurement": "New Bone Width", "setting": "[1]; 0.1 mg/kg/d", "value": "0.225 ± 0.013", "unit": "mm"}, {"measurement": "New Bone Width", "setting": "[1]; 1.0 mg/kg/d", "value": "0.305 ± 0.020", "unit": "mm"}]}
{"smiles": "COC(=O)Nc1nc2cc(C(=O)c3cccs3)ccc2[nH]1", "note": "[Nocodazole, Methyl-[5-(2-thienylcarbonyl)-1 H-benzimidazole-2-yl]-carbamate]", "values": [{"measurement": "New Bone Width", "setting": "[1]; 1.5 mg/kg/d", "value": "0.231 ± 0.027", "unit": "mm"}]}
{"smiles": "CCC(C)C(NC(=O)OCc1ccccc1)C(=O)NC(CCC(=O)OC(C)(C)C)C(=O)NC(C)C(=O)NC(C=O)CC(C)C", "note": "(stereo not drawn) [Ps-1] (Cbz-IE(OtBu)AL-aldehyde; configuration not given here)", "values": [{"measurement": "Bone Formation Rate: BFR/BS", "setting": "ICR Swiss mice; 1 mg/kg/d, x5, mean ± SE", "value": "1.766 ± 0.425* μm^3/μm^2/day"}, {"measurement": "Bone Volume (%, BV/TV)", "setting": "ICR Swiss mice; 1 mg/kg/d, x5, mean ± SE", "value": "27.13 ± 1.51", "unit": "%"}]}
{"smiles": "CC(Nc1ccccc1)=C1C(=O)NC(Cc2ccccc2)C1=O", "note": "(stereo not drawn) [TN-16, 3-(1-Anilinoethylidene)-5-benzylpyrrolidine-2,4-dione]", "values": [{"measurement": "New Bone Width", "setting": "[1]; 2 mg/kg/d", "value": "0.120 ± 0.016", "unit": "mm"}, {"measurement": "New Bone Width", "setting": "[1]; 4 mg/kg/d", "value": "0.376 ± 0.029", "unit": "mm"}, {"measurement": "New Bone Width", "setting": "[1]; 8 mg/kg/d", "value": "0.525 ± 0.035", "unit": "mm"}, {"measurement": "Luciferase Activity (Fold Change) (BMP2 promoter-Luc)", "setting": "BMP2 promoter-Luc; TN-16 0.16 μM", "value": "2.4 ± 0.40", "unit": "Fold Change"}, {"measurement": "Luciferase Activity (Fold Change) (BMP2 promoter-Luc)", "setting": "BMP2 promoter-Luc; TN-16 0.31 μM", "value": "4.0 ± 0.09", "unit": "Fold Change"}, {"measurement": "Luciferase Activity (Fold Change) (BMP2 promoter-Luc)", "setting": "BMP2 promoter-Luc; TN-16 0.61 μM", "value": "4.8 ± 0.50", "unit": "Fold Change"}, {"measurement": "Luciferase Activity (Fold Change) (BMP2 promoter-Luc)", "setting": "BMP2 promoter-Luc; TN-16 1.25 μM", "value": "5.6 ± 0.12", "unit": "Fold Change"}, {"measurement": "Luciferase Activity (Fold Change) (BMP2 promoter-Luc)", "setting": "BMP2 promoter-Luc; TN-16 2.5 μM", "value": "6.2 ± 0.30", "unit": "Fold Change"}, {"measurement": "Bone Formation Rate: BFR/BS", "setting": "ICR Swiss mice; 2 mg/kg/d, x2, mean ± SE", "value": "0.815 ± 0.129* μm^3/μm^2/day"}, {"measurement": "Bone Volume (%, BV/TV)", "setting": "ICR Swiss mice; 2 mg/kg/d, x2, mean ± SE", "value": "23.42 ± 3.13", "unit": "%"}, {"measurement": "Bone Formation Rate: BFR/BS", "setting": "ICR Swiss mice; 4 mg/kg/d, x2, mean ± SE", "value": "1.130 ± 0.293* μm^3/μm^2/day"}, {"measurement": "Bone Volume (%, BV/TV)", "setting": "ICR Swiss mice; 4 mg/kg/d, x2, mean ± SE", "value": "27.21 ± 2.14", "unit": "%"}, {"measurement": "Bone Formation Rate: BFR/BS", "setting": "ICR Swiss mice; 8 mg/kg/d, x2, mean ± SE", "value": "1.231 ± 0.181** μm^3/μm^2/day"}, {"measurement": "Bone Volume (%, BV/TV)", "setting": "ICR Swiss mice; 8 mg/kg/d, x2, mean ± SE", "value": "25.44 ± 1.29", "unit": "%"}, {"measurement": "BMD", "setting": "mice; Calvariae (1-month-old mice), 4 mg/kg/d", "value": "26.0 ± 0.7", "unit": "mg/cm^2"}, {"measurement": "BMD", "setting": "mice; Calvariae (1-month-old mice), 8 mg/kg/d", "value": "31.3 ± 0.5", "unit": "mg/cm^2"}, {"measurement": "BMD", "setting": "mice; Femora (3-month-old mice), 2 mg/kg/d", "value": "90.1 ± 2.2", "unit": "mg/cm^2"}, {"measurement": "BMD", "setting": "mice; Femora (3-month-old mice), 4 mg/kg/d", "value": "100.9 ± 1.6", "unit": "mg/cm^2"}, {"measurement": "BMD", "setting": "mice; Femora (3-month-old mice), 8 mg/kg/d", "value": "102.1 ± 1.5", "unit": "mg/cm^2"}, {"measurement": "BMD", "setting": "mice; Tibiae (3-month-old mice), 2 mg/kg/d", "value": "78.0 ± 2.2", "unit": "mg/cm^2"}, {"measurement": "BMD", "setting": "mice; Tibiae (3-month-old mice), 4 mg/kg/d", "value": "84.5 ± 1.0", "unit": "mg/cm^2"}, {"measurement": "BMD", "setting": "mice; Tibiae (3-month-old mice), 8 mg/kg/d", "value": "85.5 ± 0.8", "unit": "mg/cm^2"}]}
